SMILES strings stand for the structures.

Drawing on US20110281179A1, “NON-AQUEOUS ELECTROLYTIC SOLUTION, AND LITHIUM BATTERY COMPRISING SAME” (UBE INDUSTRIES, LTD., priority 2008, published 2011), this text covers pKa for five compounds.

The series in a line: pKa (acid dissociation constant). The series is classed as physicochemical. The text has this:
Here, the pKa value is also called an acid dissociation constant, and the pKa can be measured by an ordinary method. For example, the pKa can be determined in accordance with the method described in Experimental Chemistry Seminar 5 “Thermal Measurement and Equilibrium”, p. 460 (edited by the Chemical Society of Japan, published by Maruzen Company, Limited.).
Consider `Oc1ccc(F)c(F)c1F` [2,3,4-Trifluorophenol], for which the pKa was 6.
`Oc1c(F)c(F)cc(F)c1F` [2,3,5,6-Tetrafluorophenol]: the pKa is 5.5.
The figure for `Oc1ccc(F)cc1F` [2,4-Difluorophenol] is 8.4; for `Oc1ccc(F)cc1` [4-Fluorophenol] it is 9.9.
The figure for `Oc1c(Cl)c(Cl)c(Cl)c(Cl)c1Cl` [Pentachlorophenol] is 4.7.
